# Read-outs that look alike come from different tables or passages of the source.
# Molecular target: T1, MshC (Mycobacterium tuberculosis, UniProt P9WJM9)
# T1 sequence (P9WJM9 1-414): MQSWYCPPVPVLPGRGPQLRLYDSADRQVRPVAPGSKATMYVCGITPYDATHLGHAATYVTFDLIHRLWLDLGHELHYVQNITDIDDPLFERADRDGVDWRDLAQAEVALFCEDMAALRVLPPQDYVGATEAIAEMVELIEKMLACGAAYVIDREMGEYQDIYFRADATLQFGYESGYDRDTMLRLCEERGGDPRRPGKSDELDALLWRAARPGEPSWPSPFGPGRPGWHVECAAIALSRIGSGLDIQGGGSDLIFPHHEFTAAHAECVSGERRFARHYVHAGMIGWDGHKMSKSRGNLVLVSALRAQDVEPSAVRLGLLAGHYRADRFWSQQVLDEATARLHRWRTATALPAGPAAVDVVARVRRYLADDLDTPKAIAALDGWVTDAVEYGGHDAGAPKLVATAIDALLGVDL
# Test: biochemical
# Type: biochemical, M. tuberculosis
smiles,measurement,setting,value
CCCN(CCC)CCCNC(=O)c1ccc2c(c1)N(Cc1ccc(F)cc1)C(=O)c1ccccc1[S+]2[O-] (centres unmarked) [Inhibitor 83-05],IC50,IC50,> 3000 µM
O=C(NCCCN1CCC(Cc2ccccc2)CC1)c1ccc2c(c1)N(Cc1ccc(Cl)cc1)C(=O)c1ccccc1S2(=O)=O [Inhibitor 83-33],"inhibition of MshC in words, compounds lacking the basic amino group or with groups in excess of 10 carbons on the remote amino residue",,little or no inhibition
same,IC50,IC50,> 3000 µM
O=C(NCCN1CCN(Cc2ccccc2)CC1)c1ccc2c(c1)N(Cc1cccc(Cl)c1)C(=O)c1ccccc1[S+]2[O-] (centres unmarked) [Inhibitor 83-62],"inhibition of MshC in words, compounds lacking the basic amino group or with groups in excess of 10 carbons on the remote amino residue",,little or no inhibition
same,IC50,IC50,2100 ± 900 µM
Cc1ccc(CN2C(=O)c3ccccc3Sc3ccc(C(=O)NCC(C)CN4CCC(C)CC4)cc32)cc1 (centres unmarked) [Inhibitor 1671],IC50,"IC50, μM",> 3000 µM
O=C(NC1CCN(Cc2ccccc2)CC1)c1ccc2c(c1)N(Cc1cccc(Cl)c1)C(=O)c1ccccc1[S+]2[O-] (centres unmarked) [Inhibitor 83-68],IC50,IC50,1500 ± 500 µM
O=C(NCCN1CCN(Cc2ccccc2)CC1)c1ccc2c(c1)N(Cc1cccc(Cl)c1)C(=O)c1ccccc1S2(=O)=O [Inhibitor 83-79],"inhibition of MshC in words, compounds lacking the basic amino group or with groups in excess of 10 carbons on the remote amino residue",,little or no inhibition
same,IC50,IC50,> 3000 µM
O=C(NCCCC1CCCCCC1)c1ccc2c(c1)N(Cc1cccc(Cl)c1)C(=O)c1ccccc1S2(=O)=O [Inhibitor 83-58],"inhibition of MshC in words, Z is a benzyl moiety bearing one or more halogens",,Measurable inhibition
same,IC50,IC50,≥ 500 µM
CCCCN(C)CCCNC(=O)c1ccc2c(c1)N(Cc1cccc(C)c1)C(=O)c1ccccc1S2(=O)=O [Inhibitor 83-24],IC50,IC50,1500 ± 500 µM
O=C(NCCCN1CCCC1)c1ccc2c(c1)N(Cc1cccc(Cl)c1)C(=O)c1ccccc1S2(=O)=O [Inhibitor 83-78],"inhibition of MshC in words, 1,3-diaminopropyl residue with remote amino residue capable of protonation",,measurable inhibition
same,"inhibition of MshC in words, Z is a benzyl moiety bearing one or more halogens",,Measurable inhibition
same,IC50,IC50,~500 µM
same,"inhibition of MshC in words, compounds grouped by X","X=S, X=SO, X=SO2",Significant inhibition
CN(CCCNC(=O)c1ccc2c(c1)N(Cc1ccccc1)C(=O)c1ccccc1[S+]2[O-])C1CCCCC1 (centres unmarked) [Inhibitor 83-11],"inhibition of MshC in words, 1,3-diaminopropyl residue with remote amino residue capable of protonation",,measurable inhibition
same,IC50,IC50,400 ± 100 µM
same,"inhibition of MshC in words, compounds grouped by X","X=S, X=SO, X=SO2",Significant inhibition
O=C(NCCCN1CCN(Cc2ccccc2)CC1)c1ccc2c(c1)N(Cc1ccccc1)C(=O)c1ccccc1S2(=O)=O [Inhibitor 83-52],"inhibition of MshC in words, compounds lacking the basic amino group or with groups in excess of 10 carbons on the remote amino residue",,little or no inhibition
same,IC50,IC50,2500 ± 1200 µM
CCCCN(C)CCCNC(=O)c1ccc2c(c1)N(Cc1cccc(Cl)c1)C(=O)c1ccccc1S2(=O)=O [Inhibitor 1965],"inhibition of MshC in words, 1,3-diaminopropyl residue with remote amino residue capable of protonation",,measurable inhibition
same,"inhibition of MshC in words, Z is a benzyl moiety bearing one or more halogens",,Measurable inhibition
same,IC50,"IC50, μM",1700 ± 300 µM
same,"inhibition of MshC in words, compounds grouped by X","X=S, X=SO, X=SO2",Significant inhibition
Cc1ccc(C)c(CN2C(=O)c3ccccc3S(=O)(=O)c3ccc(C(=O)NCCCN(C)C4CCCCC4)cc32)c1 [Inhibitor 83-46],IC50,IC50,≥ 500 µM
O=C(NCCCN1CCOCC1)c1ccc2c(c1)N(Cc1cccc(Cl)c1)C(=O)c1ccccc1S2(=O)=O [Inhibitor 83-82],IC50,IC50,~3000 µM
Cc1ccc(CN2C(=O)c3ccccc3Sc3ccc(C(=O)NCCCN4CC(C)CC(C)C4)cc32)cc1 (centres unmarked) [Inhibitor 1672],IC50,"IC50, μM",> 3000 µM
CCCCN(CC)CCCNC(=O)c1ccc2c(c1)N(CC)C(=O)c1ccccc1S2(=O)=O [Inhibitor 83-20],IC50,IC50,> 3000 µM
Cc1cccc(CN2C(=O)c3ccccc3S(=O)(=O)c3ccc(C(=O)NCCCN4CCCCCC4)cc32)c1 [Inhibitor 83-23],IC50,IC50,> 3000 µM
O=C(NCCCN1CCOCC1)c1ccc2c(c1)N(Cc1cccc(Cl)c1)C(=O)c1ccccc1[S+]2[O-] (centres unmarked) [Inhibitor 83-70],"inhibition of MshC in words, 1,3-diaminopropyl residue with remote amino residue capable of protonation",,measurable inhibition
same,"inhibition of MshC in words, Z is a benzyl moiety bearing one or more halogens",,Measurable inhibition
same,"inhibition of MshC in words, compounds grouped by X",,Significant inhibition
same,IC50,IC50,470 ± 130 µM
O=C(NCCCSC1CCCCC1)c1ccc2c(c1)N(Cc1cccc(Cl)c1)C(=O)c1ccccc1[S+]2[O-] (centres unmarked) [Inhibitor 83-61],"inhibition of MshC in words, compounds lacking the basic amino group or with groups in excess of 10 carbons on the remote amino residue",,little or no inhibition
same,IC50,IC50,~1000 µM
CC1CCCN(CCCNC(=O)c2ccc3c(c2)N(Cc2ccccc2F)C(=O)c2ccccc2S3(=O)=O)C1 (centres unmarked) [Inhibitor 83-40],"inhibition of MshC in words, 1,3-diaminopropyl residue with remote amino residue capable of protonation",,measurable inhibition
same,"inhibition of MshC in words, Z is a benzyl moiety bearing one or more halogens",,Measurable inhibition
same,IC50,IC50,100 ± 30 µM
same,"inhibition of MshC in words, compounds grouped by X","X=S, X=SO, X=SO2",Significant inhibition
O=C(NCCCN1CCOCC1)c1ccc2c(c1)N(Cc1ccccc1)C(=O)c1ccccc1[S+]2[O-] (centres unmarked) [Inhibitor 83-10],IC50,IC50,> 3000 µM
CCCN(CCC)CCCNC(=O)c1ccc2c(c1)N(Cc1cccc(Cl)c1)C(=O)c1ccccc1[S+]2[O-] (centres unmarked) [Inhibitor 83-73],"inhibition of MshC in words, 1,3-diaminopropyl residue with remote amino residue capable of protonation",,measurable inhibition
same,"inhibition of MshC in words, Z is a benzyl moiety bearing one or more halogens",,Measurable inhibition
same,IC50,IC50,~200 µM
same,"inhibition of MshC in words, compounds grouped by X","X=S, X=SO, X=SO2",Significant inhibition
CN(CCc1ccccc1)C(=O)c1ccc2c(c1)N(Cc1cccc(Cl)c1)C(=O)c1ccccc1S2(=O)=O [Inhibitor 1943],IC50,"IC50, μM",> 3000 µM
CCN1C(=O)c2ccccc2[S+]([O-])c2ccc(C(=O)NCCCN3CCOCC3)cc21 (centres unmarked) [Inhibitor 83-13],IC50,IC50,> 3000 µM
CCN(CC)CCCNC(=O)c1ccc2c(c1)N(Cc1cc(C)ccc1C)C(=O)c1ccccc1[S+]2[O-] (centres unmarked) [Inhibitor 83-06],IC50,IC50,> 3000 µM
CN(CCCNC(=O)c1ccc2c(c1)N(Cc1cccc(Cl)c1)C(=O)c1ccccc1[S+]2[O-])C1CCCCC1 (centres unmarked) [Inhibitor 1938],"inhibition of MshC in words, 1,3-diaminopropyl residue with remote amino residue capable of protonation",,measurable inhibition
same,"inhibition of MshC in words, Z is a benzyl moiety bearing one or more halogens",,Measurable inhibition
same,IC50,"IC50, μM",102 ± 4 µM
same,"inhibition of MshC in words, compounds grouped by X","X=S, X=SO, X=SO2",Significant inhibition
O=C(NCCN1CCN(Cc2ccccc2)CC1)c1ccc2c(c1)N(Cc1cccc(Cl)c1)C(=O)c1ccccc1[S+]2[O-] (centres unmarked) [Inhibitor 83-56],"inhibition of MshC in words, compounds lacking the basic amino group or with groups in excess of 10 carbons on the remote amino residue",,little or no inhibition
same,IC50,IC50,> 3000 µM
CC1CCCCN1CCNC(=O)c1ccc2c(c1)N(Cc1ccc(Cl)cc1)C(=O)c1ccccc1S2(=O)=O (centres unmarked) [Inhibitor 83-30],IC50,IC50,> 3000 µM
CN(CCNC(=O)c1ccc2c(c1)N(Cc1ccccc1)C(=O)c1ccccc1S2(=O)=O)C1CCCCC1 [Inhibitor 83-54],"inhibition of MshC in words, 1,3-diaminopropyl residue with remote amino residue capable of protonation",,measurable inhibition
same,"inhibition of MshC in words, Z benzyl moiety with methyl groups in the 2,5 positions or unsubstituted",,Weak but detectable inhibition
same,IC50,IC50,510 ± 80 µM
same,"inhibition of MshC in words, compounds grouped by X","X=S, X=SO, X=SO2",Significant inhibition
CCCCN(C)CCCNC(=O)c1ccc2c(c1)N(Cc1cc(C)ccc1C)C(=O)c1ccccc1[S+]2[O-] (centres unmarked) [Inhibitor 1062],"inhibition of MshC in words, 1,3-diaminopropyl residue with remote amino residue capable of protonation",,measurable inhibition
same,"inhibition of MshC in words, Z benzyl moiety with methyl groups in the 2,5 positions or unsubstituted",,Weak but detectable inhibition
same,IC50,"IC50, μM",~2500 µM
O=C(NCCCSC1CCCCC1)c1ccc2c(c1)N(Cc1ccccc1)C(=O)c1ccccc1[S+]2[O-] (centres unmarked) [Inhibitor 83-12],"inhibition of MshC in words, compounds lacking the basic amino group or with groups in excess of 10 carbons on the remote amino residue",,little or no inhibition
same,IC50,IC50,> 3000 µM
Cc1ccc(C)c(CN2C(=O)c3ccccc3S(=O)(=O)c3ccc(C(=O)NCCCN4CCCCCC4)cc32)c1 [Inhibitor 83-44],"inhibition of MshC in words, 1,3-diaminopropyl residue with remote amino residue capable of protonation",,measurable inhibition
same,IC50,IC50,> 500 µM
O=C(NCCCSC1CCCCC1)c1ccc2c(c1)N(Cc1ccccc1)C(=O)c1ccccc1S2(=O)=O [Inhibitor 83-55],"inhibition of MshC in words, compounds lacking the basic amino group or with groups in excess of 10 carbons on the remote amino residue",,little or no inhibition
same,IC50,IC50,> 3000 µM
CCCCN(CCCNC(=O)c1ccc2c(c1)N(Cc1cccc(Cl)c1)C(=O)c1ccccc1[S+]2[O-])Cc1ccccc1 (centres unmarked) [Inhibitor 83-76],IC50,IC50,≥ 3000 µM
Cc1ccc(C)c(CN2C(=O)c3ccccc3S(=O)(=O)c3ccc(C(=O)NCCCN4CCOCC4)cc32)c1 [Inhibitor 83-43],IC50,IC50,> 3000 µM
CCN(C(=O)c1ccc2c(c1)N(Cc1cccc(Cl)c1)C(=O)c1ccccc1S2(=O)=O)c1ccccc1 [Inhibitor 1966],IC50,"IC50, μM",> 3000 µM
O=C(NCCCN1CCCCC1)c1ccc2c(c1)N(Cc1cccc(Cl)c1)C(=O)c1ccccc1S2 [Inhibitor 1776],"inhibition of MshC in words, 1,3-diaminopropyl residue with remote amino residue capable of protonation",,measurable inhibition
same,"inhibition of MshC in words, Z is a benzyl moiety bearing one or more halogens",,Measurable inhibition
same,IC50,"IC50, μM",320 ± 50 µM
same,"inhibition of MshC in words, compounds grouped by X","X=S, X=SO, X=SO2",Significant inhibition
Cc1ccc(C)c(CN2C(=O)c3ccccc3S(=O)(=O)c3ccc(C(=O)NCCN4CCCCC4C)cc32)c1 (centres unmarked) [Inhibitor 83-45],IC50,IC50,> 3000 µM
Cc1ccc(C)c(CN2C(=O)c3ccccc3[S+]([O-])c3ccc(C(=O)NCCCN4CCCC4)cc32)c1 (centres unmarked) [Inhibitor 1061],"inhibition of MshC in words, 1,3-diaminopropyl residue with remote amino residue capable of protonation",,measurable inhibition
same,"inhibition of MshC in words, Z benzyl moiety with methyl groups in the 2,5 positions or unsubstituted",,Weak but detectable inhibition
same,IC50,"IC50, μM",1600 ± 300 µM
same,"inhibition of MshC in words, compounds grouped by X","X=S, X=SO, X=SO2",Significant inhibition
CCC1CCCCN1CCCNC(=O)c1ccc2c(c1)N(Cc1ccccc1)C(=O)c1ccccc1S2(=O)=O (centres unmarked) [Inhibitor 83-48],IC50,IC50,≥ 500 µM
CC(C)CN(CCCNC(=O)c1ccc2c(c1)N(Cc1cccc(Cl)c1)C(=O)c1ccccc1S2(=O)=O)CC(C)C [Inhibitor 83-81],IC50,IC50,> 3000 µM
CN(CCCNC(=O)c1ccc2c(c1)N(Cc1cccc(Cl)c1)C(=O)c1ccccc1S2(=O)=O)c1ccccc1 [Inhibitor 83-59],IC50,IC50,> 3000 µM

# Reference: patent US20100022509A1, “Inhibitors of MshC and Homologs Thereof, and Methods of Identifying Same” (priority 2006, published 2010)
